Laboratory results published in article PMC11966994 (Emerging Microbes & Infections, 2025).

Experiments:
[1] = tested on: influenza virus; format: cell-based
[2] = in vitro; details: African green monkey
[3] = in vitro; details: human
[4] = rat, in vivo, 10 mg/kg; cited from earlier work
[5] = tested on: IFNα/β mRNA; format: cell-based

SMILES: O=C(O[C@@H]1[C@@H](O)[C@H](Oc2cc(O)c(C(=O)CCc3ccccc3)c(O)c2)O[C@@H]2COC(=O)c3cc(O)c(O)c(O)c3-c3c(cc(O)c(O)c3O)C(=O)O[C@@H]12)c1cc(O)c(O)c(O)c1 [Compound 46, Thonningianin A]
- effect on influenza virus replication [1]: did not significantly affect
- CC50 [2]: 10.6 µM
- CC50 [3]: 20.2 µM
- t₁/₂ [4]: 3.69 h
- effect on IFNα/β mRNA expression levels [5]: did not significantly affect
